Key:
C2C12 myotube cells [1] = assay: Cell viability of C2C12 myotube cells with dexamethasone-induced myoatrophy; type: cell-based, mouse; settings: for viability of myotube cells reduced by dexamethasone treatment, by isolated compounds: each compound at 20 uM, FIG. 13
Description: Cell culture and differentiation of myoblasts: C2C12 mouse (CRL1772; American type cell collection, USA)-derived myoblasts were cultured in Dulbecco's Modified Eagle's Medium (DMEM) medium supplemented with 10 (v/v) % FBS, and after reaching 90% confluence, they were transferred to DMEM medium containing 2 (v/v) % horse serum and cultured for 7 days to differentiate into myotube cells.
After differentiating C2C12 myoblasts into myotube cells, myoatrophy was induced by treatment with 100 µM of Dexamethasone for 24 hours, and then the myoatrophy-induced myotube cells were treated with Ponciri Fructus extract (PT) at concentrations of 5, 10, and 20 ug/ml, respectively, to determine the effect of alleviating myoatrophy.
The effect of each fraction (concentrations 5 ug/ml, 10 ug/ml, 20 ug/ml, 40 ug/ml) prepared according to Example 2 on the viability of […] in which myoatrophy was induced by dexamethasone was analyzed. The assay was performed in the same manner as in Example 1.
The effect of the compounds isolated according to Example 3 (each at a concentration of 20 uM) on the viability of myotube cells in which myoatrophy was induced by dexamethasone was analyzed. The assay was performed in the same manner as in Example 1.
The assay was performed in the same manner as in Example 1.

[2] = test system: mice with dexamethasone-induced sarcopenia; assay: Muscle force in mice with dexamethasone-induced sarcopenia; type: in vivo, C57BL/6J mice; settings: 4 weeks
Description: (§1) C57BL/6J mice (male, 10 weeks old) were obtained from Doo-yeol Biotech, and after 2 weeks of acclimatization, they were divided into 6 test groups (n=10 per group) according to body weight. The test substance was prepared as a liquid suspension using 0.5% CMC, and the test substance was administered for 4 weeks. To compensate for the placebo effect of 0.5% CMC and the weight loss effect caused by the stress of administration, the vehicle control group was administered 0.5% CMC orally daily. Two weeks after treatment, the experimental group received an intraperitoneal injection of dexamethasone for 2 weeks to induce sarcopenia, while the normal control group received an intraperitoneal injection of saline. All mice were fed the same AIN76 diet (Research Diets) and treated with the test compound for an additional 2 weeks for a total of 4 weeks. The dark:light cycle was maintained at a 12 hr:12 hr interval and water was allowed ad libitum.
The changes in muscle force in mice were determined by the same method as in Example 3 above.

C2C12 myotube cells [3] = assay: RT-qPCR of myotube cell differentiation and exercise performance-related gene expression in dexamethasone-treated C2C12 myotube cells; type: cell-based, mouse; settings: auraptene treatment after dexamethasone
Description: C2C12 mouse-derived […] treated with dexamethasone 10 µM were washed twice with PBS, and total RNA was extracted according to the user-recommended protocol of an RNA extraction kit (GeneAll RNA isolation kit, Seoul, South Korea). cDNA was synthesized from the extracted RNA and subjected to real time-quantitative polymerase chain reaction (RT-qPCR). PCR analysis was performed according to the user-recommended cycling conditions of analyzer (Applied Biosystems 7900 HT thermal cycler, Applied Biosystems), and to determine the expression level of each mRNA, fold change values were calculated relative to the control, using beta-actin as an endogeneous control, and relative expression amounts were compared. The primer sequences are as follows Myf5 forward primer: TCCAGGTATTCCCACCTGCT (sequence 1), Myf5 reverse primer: CACCTGGAGCGGATGAAGAAGAAC (sequence 2); Myf6 forward primer: ACAGATCGTCGGAAAGCAGC (sequence 3), Myf6 reverse primer: CACTCCGCAGAATCTCCACC (sequence 4); Myod forward primer: CATAGACTTGACAGGCCCCG (sequence 5), Myod reverse primer: CGGGTCCAGGTCCTCAAAAA (sequence 6); Myog forward primer: AGCTATCCGGTTCCAAAGCC (sequence 7), Myog reverse primer: GCACAGGAGACCTTGGTCAG (sequence 8); Ppard forward primer: GTATGCGCATGGGACTCACT (sequence 9), Ppard reverse primer: ACTGCCTTTACCGTGGGTTT (SEQ ID NO: 10); Ppargcla forward primer: GTTGCCTGCATGAGTGTGTG (SEQ ID NO: 11), Ppargc1a reverse primer: CACATGTCCCAAGCCATCCA (SEQ ID NO: 12). As a result, the gene expressions of Myf5, Myf6, Myod and Myog, markers of myotube cell differentiation, which were decreased by dexamethasone treatment, were increased by Ponciri Fructus extract treatment, and the gene expressions of Ppard and Pgc1a, markers of motor performance, were increased by Ponciri Fructus extract treatment, as shown in FIGS. 2 and 3.
The effect of auraptene on promoting myotube cell differentiation and exercise performance-related gene expression in C2C12 myotube cells with dexamethasone-induced myoatrophy was analyzed. The assay was performed using the same method as in Example 2.

myotube cells = assay: Diameter analysis of myotube cells with dexamethasone-induced myoatrophy; type: cell-based, mouse; settings: auraptene 5, 10, 20 uM; dexamethasone 100 uM; FIG. 15
Description: The effect of auraptene (5 uM, 10 uM, 20 uM) on the diameter of myotube cells in which myoatrophy was induced by dexamethasone (100 uM) was analyzed. The results confirmed that the diameter of myotube cells decreased by dexamethasone treatment was restored by auraptene treatment (FIG. 15).

C2C12 myotube cells [4] = assay: Oxidative stress and mitochondrial function in dexamethasone-treated C2C12 myotube cells; type: cell-based, mouse; settings: 10 μM dexamethasone 24 hours, then auraptene; FIG. 18
Description: C2C12 myoblasts were differentiated into myotube cells as in Example 1, and then treated with 10 μM dexamethasone for 24 hours to induce oxidative stress or mitochondrial dysfunction, and then treated with auraptene to determine its efficacy in improving function.

[5] = test system: mice with dexamethasone-induced sarcopenia; assay: Weight by muscle types in mice with dexamethasone-induced sarcopenia; type: in vivo, C57BL/6J mice
Description: as §1
At the end of a total of 4 weeks of Ponciri Fructus extract administration in Example 3 above, the weight of each type of muscle tissue in all treatment groups was determined.
After a total of 4 weeks of Auraptene administration, the weight of each type of muscle tissue in all treatment groups was determined in Example 8-5 above.

[6] = auraptene 10, 50 mg/kg, 4 weeks, vs dexamethasone-treated group, FIG. 20

Structure (SMILES): CC(C)C(=O)Cc1c(OCC2OC2(C)C)ccc2ccc(=O)oc12 (stereo not shown) [Compound 9, Isoponcimarin]
- viability of myotube cells reduced by dexamethasone treatment, by isolated compounds (C2C12 myotube cells [1]): excellently restore

Structure (SMILES): C/C(=C\COc1ccc2ccc(=O)oc2c1)C/C=C/C(C)(C)OO [Compound 12, 7-O-(7′-peroxygeranyl)coumarin]
- viability of myotube cells reduced by dexamethasone treatment, by isolated compounds (C2C12 myotube cells [1]): excellently restore

Structure (SMILES): O=c1ccc2ccc(O)cc2o1 [Compound 3, Umbelliferone]
- viability of myotube cells reduced by dexamethasone treatment, by isolated compounds (C2C12 myotube cells [1]): excellently restore

Structure (SMILES): CC(C)=CCC/C(C)=C/COc1ccc2ccc(=O)oc2c1 [Compound 2, Auraptene]
- muscle force compared to the dexamethasone-treated group ([2]; auraptene 10, 50 mg/kg oral once daily, Dexamethasone 20 mg/kg 2 weeks, FIG. 19): increased
- Myf5 gene expression (myotube cell differentiation marker) (C2C12 myotube cells [3]; FIG. 16): increased
- Myod1 gene expression (myotube cell differentiation marker) (C2C12 myotube cells [3]; FIG. 16): increased
- Myog gene expression (myotube cell differentiation marker) (C2C12 myotube cells [3]; FIG. 16): increased
- Nrf1 gene expression (motor performance marker) (C2C12 myotube cells [3]; FIG. 17): increased
- Pparg1a gene expression (motor performance marker) (C2C12 myotube cells [3]; FIG. 17): increased
- Tomm20 gene expression (motor performance marker) (C2C12 myotube cells [3]; FIG. 17): increased
- UCP3 gene expression (motor performance marker) (C2C12 myotube cells [3]; FIG. 17): increased
- diameter of myotube cells decreased by dexamethasone treatment (myotube cells): restored
- viability of myotube cells reduced by dexamethasone treatment, auraptene by concentration (C2C12 myotube cells [1]; 5 uM, 10 uM, 20 uM, all experimental groups, FIG. 14): restore
- viability of myotube cells reduced by dexamethasone treatment, by isolated compounds (C2C12 myotube cells [1]): excellently restore
- viability of myotube cells reduced by dexamethasone treatment, by isolated compounds (C2C12 myotube cells [1]; listed as auraptene): best effect
- glutathione (GSH) content (C2C12 myotube cells [4]): increased
- mitochondrial dysfunction induced by dexamethasone treatment (C2C12 myotube cells [4]): improved
- calf muscle weight [5, 6]: significantly increased
- longissimus dorsi muscle weight [5, 6]: significantly increased
- soleus muscle weight [5, 6]: significantly increased
- thigh muscle weight [5, 6]: significantly increased

Structure (SMILES): C[C@]12C/C(=C/O)C(=O)C[C@@H]1CC[C@@H]1[C@@H]2CC[C@@]2(C)[C@H]1CC[C@]2(C)O [Oxymetholone, reference compound]
- muscle force compared to the group treated with Dexamethasone alone ([2]; oral once daily, PT 10, 50, 100 mg/kg, Oxymetholone 50 mg/kg, Dexamethasone 20 mg/kg i.p. 2 weeks, FIGS. 4 and 5): increased
- weight of quadriceps muscle ([5]; after 4 weeks, PT 10, 50, 100 mg/kg, Oxymetholone 50 mg/kg, vs Dexamethasone group, FIG. 6): significantly increased
- weight of gastrocnemius muscle ([5]; after 4 weeks, PT 10, 50, 100 mg/kg, Oxymetholone 50 mg/kg, vs Dexamethasone group, FIG. 7): significantly increased
- weight of tibialis muscle ([5]; after 4 weeks, PT 10, 50, 100 mg/kg, Oxymetholone 50 mg/kg, vs Dexamethasone group, FIG. 8): significantly increased
